Test results published in patent publication US20250164476A1, “COLORIMETRIC ASSAY USING DITHIOLATE-GRAFTED NANOPARTICLES FOR HIGH-THROUGHPUT SCREENING OF CRYOPROTECTANTS” (The Government of the United States of America, as …, priority 2023, published 2025).

Experiments:
[1] = Ligand effect on the freezing of AuNP (96-well serial dilution); settings: for appearance of AuNP samples in presence of test ligand: before freezing, 10 nM AuNP in 1×PBS (FIG. 5A); for type of AuNP aggregation on freezing: conclusion from frozen and post-thaw states; for colloidal color of AuNP in frozen state: frozen at −20° C. for 2 hours, serial dilution, ligands from 1 mM, sucrose 40% (FIG. 5B); for colloidal color / optical properties of AuNP at post-thaw state: thawed at room temperature for 30 minutes (FIG. 5C)
Procedure: In a sample well plate series (96 wells), a 2 millimolar (mM) stock solution of the test ligands was mixed with AuNP, resulting in a 1 mM AuNP-probe solution which was deposited as a highest concentration in respective top wells (using two columns or lanes of wells for each ligand), and was serially diluted by half using 2×PBS buffer for every following well. More specifically, the stock ligand concentration, 1 mM, was diluted by ½, ¼, ⅛, 1/16, 1/32, 1/64, 1/128, and 1/256 times (from top to bottom) by using 2×PBS. After finishing serial dilution of the target materials (four ligands, here), 50 microliters (μL) of 20 nM AuNP were added to each well of the well plate series to make a 10 nM AuNP-probe in 1×PBS in each well as a final concentration. […] See the resulting sample well plate series in FIG. 5A.
FIG. 5B is an image of the 96 well plate series of FIG. 5A after freezing. Specifically, the 96 well plate series was frozen at −20° C. for 2 hours, resulting in the frozen state of the samples depicted in FIG. 5B.
FIG. 5C is an image of the 96 well plate series of FIG. 5B after thawing. More specifically, the 96 well plate series of FIG. 5B was thawed at room temperature for 30 minutes, resulting the post-thaw state of FIG. 5C.

[2] = sucrose-based sandwich assay
Procedure: More specifically, FIGS. 10A-10F show respective anti-icing samples tested including: sucrose 40% (as a negative control), AFP (RiAFP) 0.12 mg/ml, BSA 0.12 mg/ml, 10K PVA 0.12 mg/ml, 10K PVA 1 mg/ml, and zirconium acetate (ZrN) 40 mg/ml. The buffer utilized was 0.5×PBS, with the exception of ZrN which was in 80 mM HCl. For the IRI assay, each sample was prepared with 40% sucrose as a final concentration. The following procedures were performed for each sample. Initially, 2 μL of sample was dropped between two round coverslips (borosilicate, d=1.3˜1.5 cm) and sealed with grease. The sample was then inserted into a Linkam® Scientific cryostage with liquid nitrogen (LN2) control. The sample was first frozen at −50° C. for 1 min, then the temperature was increased to −20° C. at a rate of 10° C./min, followed by a slow increase in temperature to −10° C. at a speed of 1° C./min. A sample image was then taken after annealed at −10° C. for 30 minutes without interruption.

[3] = AuNP-TA/NTA probe colorimetric HTS titration assay for anti-icing activity; settings: FIG. 8C; 0.2 mg/ml serially diluted, 1×PBS, frozen at −20° C. for 2 hours, thawed
Procedure: FIG. 6A is an image of a 96 well plate series titration test, utilizing an AuNP-TA/NTA probe in different test solutions at room temperature. From top to bottom there are six different testing targets: (1) AFP 0.3 mg/ml, (2) polyvinyl alcohol (PVA) 10K 0.3%, (3) bovine serum albumin (BSA) 0.3 mg/ml, (4) ethylene glycol (EG) 50%, (5) glycerol (Gly) 50%, and (6) 80 mg/ml zirconium acetate (ZrA). The buffer was 1×PBS except for the last sample ZrA, which was in 40 mM HCl (because ZrA is only active in acidic conditions). The target samples were diluted in rows by ½, ¼, ⅛, 1/16, 1/32, 1/64, 1/128, 1/256, 1/512, 1/1024, 1/2048 and 1/4096 times (from left to right) using 2×PBS or 80 mM HCl (for ZrA). Next, 50 μL of target materials were mixed with 50 μL of 20 nM AuNP-probe to make a final 1×PBS, or 40 mM HCl for the last sample, and 10 nM of AuNP probe in each well. […]
In general, titration is a common laboratory method for quantitative chemical analysis to determine the concentration of an identified analyte in terms of activity. […] Thus, it is necessary to obtain a quantified value or parameter in order to compare different test results in different conditions. […]

Molecule | appearance of AuNP samples in presence of test ligand [1] | type of AuNP aggregation on freezing [1] | colloidal color of AuNP in frozen state [1] | colloidal color / optical properties of AuNP at post-thaw state [1] | anti-icing effect in traditional IRI test [2] | anti-icing effects from concentration-dependent color changes [3]
O=C(O)CCCCC1CCSS1 (stereo not shown) [TA, thioctic acid] | well-dispersed without any color changes | irreversible aggregation | turned translucent at the highest concentrations | remained pale at the highest concentration |  | 
bovine serum albumin [BSA] |  |  |  |  | confirmed | low-level anti-icing effects
nitrilotriacetic acid modified thioctic acid [TA-NTA] | well-dispersed without any color changes | reversible aggregation | turned translucent at the highest concentrations | almost fully recovered their intrinsic optical properties |  | 

Second part, led by results:

appearance of AuNP samples in presence of test ligand [1] | Molecule | type of AuNP aggregation on freezing [1] | colloidal color of AuNP in frozen state [1] | colloidal color / optical properties of AuNP at post-thaw state [1] | anti-icing effect in traditional IRI test [2] | anti-icing effects from concentration-dependent color changes [3]
well-dispersed without any color changes | OC[C@H]1O[C@@](CO)(O[C@H]2O[C@H](CO)[C@@H](O)[C@H](O)[C@H]2O)[C@@H](O)[C@@H]1O [sucrose] |  | changed from the original red (top well, at the highest concentration) to purple, and finally to pale purple |  |  | 
well-dispersed without any color changes | sulfonate modified thioctic acid [TA-SO3] | reversible aggregation | red at the highest concentration without any aggregation | almost fully recovered their intrinsic optical properties |  | 
